The NIST ThermoML archive (doi:10.1021/je200856f)
Numbers after ± are expanded uncertainties.

Experiment: mn = molality of the nth substance listed, in mol/kg
Conditions: 101 kPa, Liquid; for mass density: Vibrating tube method; for electrical conductivity: Wheatstone bridge equipment

SMILES: C[N+](C)(C)CCO.[Cl-] [choline chloride] + O
- mass density (278.15 K, m1 = 0.054): 1000.97 ± 0.23 kg/m3
- mass density (278.15 K, m1 = 0.1087): 1001.95 ± 0.24 kg/m3
- mass density (278.15 K, m1 = 0.2554): 1004.5 ± 0.25 kg/m3
- mass density (278.15 K, m1 = 0.5004): 1008.71 ± 0.27 kg/m3
- mass density (278.15 K, m1 = 0.6512): 1011.01 ± 0.28 kg/m3
- mass density (278.15 K, m1 = 0.7484): 1012.68 ± 0.28 kg/m3
- mass density (278.15 K, m1 = 1.203): 1019.28 ± 0.32 kg/m3
- mass density (278.15 K, m1 = 1.504): 1022.75 ± 0.33 kg/m3
- mass density (278.15 K, m1 = 1.992): 1028.85 ± 0.37 kg/m3
- viscosity (278.15 K, m1 = 0.0293): 1.527 ± 0.048 mPa·s
- viscosity (278.15 K, m1 = 0.058): 1.551 ± 0.049 mPa·s
- viscosity (278.15 K, m1 = 0.1113): 1.515 ± 0.048 mPa·s
- viscosity (278.15 K, m1 = 0.2495): 1.577 ± 0.05 mPa·s
- viscosity (278.15 K, m1 = 0.3505): 1.601 ± 0.051 mPa·s
- viscosity (278.15 K, m1 = 0.4956): 1.631 ± 0.052 mPa·s
- viscosity (278.15 K, m1 = 0.6473): 1.695 ± 0.054 mPa·s
- viscosity (278.15 K, m1 = 0.7512): 1.741 ± 0.055 mPa·s
- viscosity (278.15 K, m1 = 0.903): 1.762 ± 0.056 mPa·s
- viscosity (278.15 K, m1 = 1.005): 1.791 ± 0.057 mPa·s
- viscosity (278.15 K, m1 = 1.203): 1.862 ± 0.059 mPa·s
- viscosity (278.15 K, m1 = 1.506): 1.936 ± 0.061 mPa·s
- viscosity (278.15 K, m1 = 1.99): 2.077 ± 0.066 mPa·s
- mass density (288.15 K, m1 = 0.054): 1000.03 ± 0.23 kg/m3
- mass density (288.15 K, m1 = 0.1087): 1000.95 ± 0.23 kg/m3
- mass density (288.15 K, m1 = 0.2554): 1003.33 ± 0.25 kg/m3
- mass density (288.15 K, m1 = 0.5004): 1007.27 ± 0.26 kg/m3
- mass density (288.15 K, m1 = 0.6512): 1009.43 ± 0.27 kg/m3
- mass density (288.15 K, m1 = 0.7484): 1011 ± 0.28 kg/m3
- mass density (288.15 K, m1 = 1.203): 1017.23 ± 0.31 kg/m3
- mass density (288.15 K, m1 = 1.504): 1020.5 ± 0.33 kg/m3
- mass density (288.15 K, m1 = 1.992): 1026.31 ± 0.36 kg/m3
- viscosity (288.15 K, m1 = 0.0293): 1.151 ± 0.036 mPa·s
- viscosity (288.15 K, m1 = 0.058): 1.17 ± 0.037 mPa·s
- viscosity (288.15 K, m1 = 0.1113): 1.164 ± 0.037 mPa·s
- viscosity (288.15 K, m1 = 0.2495): 1.192 ± 0.038 mPa·s
- viscosity (288.15 K, m1 = 0.3505): 1.211 ± 0.038 mPa·s
- viscosity (288.15 K, m1 = 0.4956): 1.237 ± 0.039 mPa·s
- viscosity (288.15 K, m1 = 0.6473): 1.287 ± 0.041 mPa·s
- viscosity (288.15 K, m1 = 0.7512): 1.323 ± 0.042 mPa·s
- viscosity (288.15 K, m1 = 0.903): 1.342 ± 0.043 mPa·s
- viscosity (288.15 K, m1 = 1.005): 1.364 ± 0.043 mPa·s
- viscosity (288.15 K, m1 = 1.203): 1.417 ± 0.045 mPa·s
- viscosity (288.15 K, m1 = 1.506): 1.476 ± 0.047 mPa·s
- viscosity (288.15 K, m1 = 1.99): 1.587 ± 0.05 mPa·s
- mass density (298.15 K, m1 = 0.054): 997.931 ± 0.23 kg/m3
- mass density (298.15 K, m1 = 0.1087): 998.81 ± 0.23 kg/m3
- mass density (298.15 K, m1 = 0.2554): 1001.09 ± 0.24 kg/m3
- mass density (298.15 K, m1 = 0.5004): 1004.84 ± 0.26 kg/m3
- mass density (298.15 K, m1 = 0.6512): 1006.92 ± 0.27 kg/m3
- mass density (298.15 K, m1 = 0.7484): 1008.42 ± 0.28 kg/m3
- mass density (298.15 K, m1 = 1.203): 1014.4 ± 0.31 kg/m3
- mass density (298.15 K, m1 = 1.504): 1017.56 ± 0.33 kg/m3
- mass density (298.15 K, m1 = 1.992): 1023.16 ± 0.36 kg/m3
- electrical conductivity (298.15 K, m1 = 0.0272): 0.279 ± 0.003 S/m
- electrical conductivity (298.15 K, m1 = 0.05): 0.492 ± 0.005 S/m
- electrical conductivity (298.15 K, m1 = 0.1): 0.919 ± 0.01 S/m
- electrical conductivity (298.15 K, m1 = 0.25): 2.03 ± 0.02 S/m
- electrical conductivity (298.15 K, m1 = 0.35): 2.67 ± 0.03 S/m
- electrical conductivity (298.15 K, m1 = 0.5): 3.55 ± 0.04 S/m
- electrical conductivity (298.15 K, m1 = 0.65): 4.37 ± 0.05 S/m
- electrical conductivity (298.15 K, m1 = 0.75): 4.79 ± 0.05 S/m
- electrical conductivity (298.15 K, m1 = 0.9): 5.44 ± 0.06 S/m
- electrical conductivity (298.15 K, m1 = 1.205): 6.54 ± 0.07 S/m
- electrical conductivity (298.15 K, m1 = 1.505): 7.43 ± 0.08 S/m
- electrical conductivity (298.15 K, m1 = 1.994): 8.53 ± 0.09 S/m
- viscosity (298.15 K, m1 = 0.0293): 0.875 ± 0.028 mPa·s
- viscosity (298.15 K, m1 = 0.058): 0.888 ± 0.028 mPa·s
- viscosity (298.15 K, m1 = 0.1113): 0.903 ± 0.029 mPa·s
- viscosity (298.15 K, m1 = 0.2495): 0.908 ± 0.029 mPa·s
- viscosity (298.15 K, m1 = 0.3505): 0.928 ± 0.029 mPa·s
- viscosity (298.15 K, m1 = 0.4956): 0.95 ± 0.03 mPa·s
- viscosity (298.15 K, m1 = 0.6473): 0.984 ± 0.031 mPa·s
- viscosity (298.15 K, m1 = 0.7512): 1.009 ± 0.032 mPa·s
- viscosity (298.15 K, m1 = 0.903): 1.023 ± 0.033 mPa·s
- viscosity (298.15 K, m1 = 1.005): 1.043 ± 0.033 mPa·s
- viscosity (298.15 K, m1 = 1.203): 1.082 ± 0.034 mPa·s
- viscosity (298.15 K, m1 = 1.506): 1.127 ± 0.036 mPa·s
- viscosity (298.15 K, m1 = 1.99): 1.234 ± 0.039 mPa·s
- mass density (308.15 K, m1 = 0.054): 994.893 ± 0.23 kg/m3
- mass density (308.15 K, m1 = 0.1087): 995.745 ± 0.23 kg/m3
- mass density (308.15 K, m1 = 0.2554): 997.961 ± 0.24 kg/m3
- mass density (308.15 K, m1 = 0.5004): 1001.61 ± 0.26 kg/m3
- mass density (308.15 K, m1 = 0.6512): 1003.63 ± 0.27 kg/m3
- mass density (308.15 K, m1 = 0.7484): 1005.09 ± 0.28 kg/m3
- mass density (308.15 K, m1 = 1.203): 1010.92 ± 0.31 kg/m3
- mass density (308.15 K, m1 = 1.504): 1014 ± 0.32 kg/m3
- mass density (308.15 K, m1 = 1.992): 1019.47 ± 0.35 kg/m3
- viscosity (308.15 K, m1 = 0.0293): 0.715 ± 0.023 mPa·s
- viscosity (308.15 K, m1 = 0.058): 0.724 ± 0.023 mPa·s
- viscosity (308.15 K, m1 = 0.1113): 0.732 ± 0.023 mPa·s
- viscosity (308.15 K, m1 = 0.2495): 0.746 ± 0.024 mPa·s
- viscosity (308.15 K, m1 = 0.3505): 0.757 ± 0.024 mPa·s
- viscosity (308.15 K, m1 = 0.4956): 0.774 ± 0.025 mPa·s
- viscosity (308.15 K, m1 = 0.6473): 0.811 ± 0.026 mPa·s
- viscosity (308.15 K, m1 = 0.7512): 0.826 ± 0.026 mPa·s
- viscosity (308.15 K, m1 = 0.903): 0.835 ± 0.027 mPa·s
- viscosity (308.15 K, m1 = 1.005): 0.854 ± 0.027 mPa·s
- viscosity (308.15 K, m1 = 1.203): 0.884 ± 0.028 mPa·s
- viscosity (308.15 K, m1 = 1.506): 0.921 ± 0.029 mPa·s
- viscosity (308.15 K, m1 = 1.99): 1.007 ± 0.032 mPa·s
- mass density (318.15 K, m1 = 0.054): 991.063 ± 0.23 kg/m3
- mass density (318.15 K, m1 = 0.1087): 991.902 ± 0.23 kg/m3
- mass density (318.15 K, m1 = 0.2554): 994.085 ± 0.24 kg/m3
- mass density (318.15 K, m1 = 0.5004): 997.683 ± 0.26 kg/m3
- mass density (318.15 K, m1 = 0.6512): 999.672 ± 0.27 kg/m3
- mass density (318.15 K, m1 = 0.7484): 1001.11 ± 0.27 kg/m3
- mass density (318.15 K, m1 = 1.203): 1006.86 ± 0.3 kg/m3
- mass density (318.15 K, m1 = 1.504): 1009.9 ± 0.32 kg/m3
- mass density (318.15 K, m1 = 1.992): 1015.31 ± 0.35 kg/m3
- viscosity (318.15 K, m1 = 0.0293): 0.633 ± 0.02 mPa·s
- viscosity (318.15 K, m1 = 0.058): 0.61 ± 0.019 mPa·s
- viscosity (318.15 K, m1 = 0.1113): 0.623 ± 0.02 mPa·s
- viscosity (318.15 K, m1 = 0.2495): 0.638 ± 0.02 mPa·s
- viscosity (318.15 K, m1 = 0.3505): 0.646 ± 0.021 mPa·s
- viscosity (318.15 K, m1 = 0.4956): 0.656 ± 0.021 mPa·s
- viscosity (318.15 K, m1 = 0.6473): 0.694 ± 0.022 mPa·s
- viscosity (318.15 K, m1 = 0.7512): 0.69 ± 0.022 mPa·s
- viscosity (318.15 K, m1 = 0.903): 0.702 ± 0.022 mPa·s
- viscosity (318.15 K, m1 = 1.005): 0.721 ± 0.023 mPa·s
- viscosity (318.15 K, m1 = 1.203): 0.747 ± 0.024 mPa·s
- viscosity (318.15 K, m1 = 1.506): 0.776 ± 0.025 mPa·s
- viscosity (318.15 K, m1 = 1.99): 0.843 ± 0.027 mPa·s
